Assay results as given in patent US20230278972A1, “SUBSTITUTED HALOALKYL SULFONANILIDE HERBICIDES” (FMC Corporation, priority 2020, published 2023).

Assays:
kochia (Bassia scoparia) [1] = test: Test A preemergence, kochia; format: in vivo; details: Bassia scoparia, pre-emergence, 240 h; Preemergence, 1000 g ai/ha; 0 to 100 scale (0 no effect, 100 complete control); read-out: Plant response rating, Kochia
Summary of the method: (§1)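 Compounds in non-phytotoxic solvent with surfactant. Soil: loam/sand. Preemergence via directed soil spray after seeding; postemergence on seedlings 2–10 cm, one- to two-leaf.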

[2] = test system: Ryegrass, Italian (Italian ryegrass, Lolium multiflorum); test: Test A postemergence, Ryegrass, Italian; format: in vivo; details: Lolium multiflorum, post-emergence, 240 h; Postemergence, 1000 g ai/ha; visual injury, 0 to 100 scale (0 no effect, 100 complete control), approx. 10 days; read-out: Plant response rating, Ryegrass, Italian
Summary of the method: as §1

[3] = test system: Foxtail, Giant (giant foxtail, Setaria faberi); test: Test A preemergence, Foxtail, Giant; format: in vivo; details: Setaria faberi, pre-emergence, 240 h; Preemergence, 1000 g ai/ha; 0 to 100 scale (0 no effect, 100 complete control); read-out: Plant response rating, Foxtail, Giant
Summary of the method: as §1

[4] = test system: galium (catchweed bedstraw, Galium aparine); test: Test A postemergence, galium; format: in vivo; details: Galium, post-emergence, 240 h; Postemergence, 1000 g ai/ha; visual injury, 0 to 100 scale (0 no effect, 100 complete control), approx. 10 days; read-out: Plant response rating, Galium
Summary of the method: (§2)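 Test chemicals, formulated in a non-phytotoxic solvent mixture with surfactant, were sprayed postemergence on plants 2 to 10 cm tall at the one- to two-leaf stage. Preemergence treatment was a directed soil spray onto freshly seeded pots. Both used a loam soil and sand blend.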

[5] = test system: barnyardgrass (Echinochloa crus-galli); test: Test B flooded paddy test, barnyardgrass; details: 336 h, read-out: Plant response rating, Barnyardgrass
[6] = test system: wheat (Triticum aestivum); test: Test A postemergence, wheat; format: in vivo; details: Triticum aestivum, post-emergence, 240 h; Postemergence, 1000 g ai/ha; visual injury, 0 to 100 scale (0 no effect, 100 complete control), approx. 10 days; read-out: Plant response rating, Wheat
Summary of the method: as §2

kochia (Bassia scoparia) [7] = test: Test A postemergence, kochia; format: in vivo; details: Bassia scoparia, post-emergence, 240 h; Postemergence, 1000 g ai/ha; visual injury, 0 to 100 scale (0 no effect, 100 complete control), approx. 10 days; read-out: Plant response rating, Kochia
Summary of the method: as §1

corn (Zea mays) = test: Test A postemergence, corn; format: in vivo; details: Zea mays, post-emergence, 240 h; Postemergence, 1000 g ai/ha; visual injury, 0 to 100 scale (0 no effect, 100 complete control), approx. 10 days
Summary of the method: as §1

[8] = test system: ducksalad (Heteranthera limosa); test: Test B flooded paddy test, ducksalad; details: 336 h, read-out: Plant response rating, Ducksalad
[9] = test system: blackgrass (Alopecurus myosuroides); test: Test A postemergence, blackgrass; format: in vivo; details: Alopecurus myosuroides, post-emergence, 240 h; Postemergence, 1000 g ai/ha; visual injury, 0 to 100 scale (0 no effect, 100 complete control), approx. 10 days; read-out: Plant response rating, Blackgrass
Summary of the method: as §1

[10] = test system: Foxtail, Giant (giant foxtail, Setaria faberi); test: Test A postemergence, Foxtail, Giant; format: in vivo; details: Setaria faberi, post-emergence, 240 h; Postemergence, 1000 g ai/ha; visual injury, 0 to 100 scale (0 no effect, 100 complete control), approx. 10 days; read-out: Plant response rating, Foxtail, Giant
Summary of the method: as §1

[11] = test system: pigweed (Amaranthus retroflexus); test: Test A preemergence, pigweed; format: in vivo; details: Amaranthus retroflexus, pre-emergence, 240 h, 1000 g ai/ha, 0 to 100 scale (0 no effect, 100 complete control), read-out: Plant response rating, Pigweed
Summary of the method: as §2

[12] = test system: ragweed (common ragweed, Ambrosia artemisiifolia); test: Test A preemergence, ragweed; format: in vivo; details: Ambrosia artemisiifolia, pre-emergence, 240 h; Preemergence, 1000 g ai/ha; 0 to 100 scale (0 no effect, 100 complete control); read-out: Plant response rating, Ragweed
Summary of the method: as §1

[13] = test system: Ryegrass, Italian (Italian ryegrass, Lolium multiflorum); test: Test A preemergence, Ryegrass, Italian; format: in vivo; details: Lolium multiflorum, pre-emergence, 240 h; Preemergence, 1000 g ai/ha; 0 to 100 scale (0 no effect, 100 complete control); read-out: Plant response rating, Ryegrass, Italian
Summary of the method: as §1

[14] = test system: barnyardgrass (Echinochloa crus-galli); test: Test A postemergence, barnyardgrass; format: in vivo; details: Echinochloa crus-galli, post-emergence, 240 h; Postemergence, 1000 g ai/ha; visual injury, 0 to 100 scale (0 no effect, 100 complete control), approx. 10 days; read-out: Plant response rating, Barnyardgrass
Summary of the method: as §2

[15] = test system: barnyardgrass (Echinochloa crus-galli); test: Test A preemergence, barnyardgrass; format: in vivo; details: Echinochloa crus-galli, pre-emergence, 240 h; Preemergence, 1000 g ai/ha; 0 to 100 scale (0 no effect, 100 complete control); read-out: Plant response rating, Barnyardgrass
Summary of the method: as §1

[16] = test system: ragweed (common ragweed, Ambrosia artemisiifolia); test: Test A postemergence, ragweed; format: in vivo; details: Ambrosia artemisiifolia, post-emergence, 240 h; Postemergence, 1000 g ai/ha; visual injury, 0 to 100 scale (0 no effect, 100 complete control), approx. 10 days; read-out: Plant response rating, Ragweed
Summary of the method: as §1

rice (Oryza sativa) = test: Test B flooded paddy test, rice; details: 336 h, read-out: Plant response rating, Rice
[17] = test system: pigweed (Amaranthus retroflexus); test: Test A postemergence, pigweed; format: in vivo; details: Amaranthus retroflexus, post-emergence, 240 h; Postemergence, 1000 g ai/ha; visual injury, 0 to 100 scale (0 no effect, 100 complete control), approx. 10 days; read-out: Plant response rating, Pigweed
Summary of the method: as §1

For Cc1cc(C)c(C(=O)N2CCCCC2)cc1NS(=O)(=O)C(F)(F)F [Compound 260, N-[2,4-Dimethyl-5-(1-piperidinylcarbonyl)phenyl]-1,1,1-trifluoromethanesulfonamide], which pest or weed control at 1000 g/ha (kochia (Bassia scoparia) [1]) is on record?
Its pest or weed control at 1000 g/ha is 40%.

What about the pest or weed control at 1000 g/ha [2] of the same compound?
The pest or weed control at 1000 g/ha was 60%.

And the pest or weed control at 1000 g/ha [3]?
Its pest or weed control at 1000 g/ha is 100%.

And the pest or weed control at 1000 g/ha [4]?
Its pest or weed control at 1000 g/ha is 70%.

What about the pest or weed control at 250 g/ha [5] of the same compound?
Its pest or weed control at 250 g/ha is 0%.

And the plant injury at 1000 g/ha [6]?
Its plant injury at 1000 g/ha is 60%.

And the pest or weed control at 1000 g/ha (kochia (Bassia scoparia) [7])?
The pest or weed control at 1000 g/ha was 0%.

What about the Corn plant response rating (crop injury, 0 = no effect, 100 = complete kill) at 1000 g/ha (corn (Zea mays)) of the same compound?
Its Corn plant response rating (crop injury, 0 = no effect, 100 = complete kill) at 1000 g/ha is 10%.

What about the pest or weed control at 250 g/ha [8] of the same compound?
The pest or weed control at 250 g/ha was 80%.

And the pest or weed control at 1000 g/ha [9]?
The pest or weed control at 1000 g/ha was 50%.

What about the pest or weed control at 1000 g/ha [10] of the same compound?
Its pest or weed control at 1000 g/ha is 50%.

And the pest or weed control at 1000 g/ha [11]?
The pest or weed control at 1000 g/ha was 100%.

And the pest or weed control at 1000 g/ha [12]?
Its pest or weed control at 1000 g/ha is 90%.

And the pest or weed control at 1000 g/ha [13]?
The pest or weed control at 1000 g/ha was 100%.

What about the pest or weed control at 1000 g/ha [14] of the same compound?
The pest or weed control at 1000 g/ha was 90%.

And the pest or weed control at 1000 g/ha [15]?
The pest or weed control at 1000 g/ha was 100%.

What about the pest or weed control at 1000 g/ha [16] of the same compound?
The pest or weed control at 1000 g/ha was 50%.

What about the plant injury at 250 g/ha (rice (Oryza sativa)) of the same compound?
The plant injury at 250 g/ha was 0%.

What about the pest or weed control at 1000 g/ha [17] of the same compound?
Its pest or weed control at 1000 g/ha is 80%.

And the melting point?
Its melting point is 262 to 266 °C.
